Where “and” joins values, the source holds several entries; their conditions need not be identical. Equal entries are not always repeated.
System: Polygonum convolvulus
Assay: Post-emergence action against weeds, greenhouse pot test, visual scoring
Format: in vivo
Conditions: 11 days after application, 0%=no control, 100%=complete control
Protocol: Seeds or rhizome pieces of monocotyledonous and dicotyledonous weeds were placed in sandy loam soil in plastic pots, covered with soil and cultivated in a greenhouse under good growth conditions. Three weeks after sowing, the test plants were treated at the 2- to 4-leaf stage. The compounds according to the invention, formulated as wettable powders or as emulsion concentrates, were sprayed onto the green parts of the plants in various dosages at a water application rate of 100 to 800 I/ha (converted). After the test plants had been left to stand in the greenhouse for 10 to 28 days under optimum growth conditions, the effect of the preparations was scored visually in comparison to untreated controls.
0%=no control 100%=complete control

C#CCOC(=O)[C@@H](C)Oc1ccc(Oc2ncc(Cl)cc2F)cc1 [Compound B7-1, clodinafop-propargyl]
Polygonum convolvulus Control in % (20 g of ai/ha): 5%

O=C(O)COc1ccc(Cl)cc1Cl [Compound B5-2, 2,4-D]
Polygonum convolvulus Control in % (200 g of ai/ha): 55%

Cc1cc(Cl)ccc1OCC(=O)O [Compound B5-3, MCPA]
Polygonum convolvulus Control in % (200 g of ai/ha): 50%

Nc1c([N+](=O)[O-])ccc(Oc2ccccc2)c1Cl [Compound B1-2, aclonifen]
Polygonum convolvulus Control in % (100 g of ai/ha): 20%

COC(=O)C(C)Oc1ccc(Oc2ccc(Cl)cc2Cl)cc1 (centres unmarked) [Compound B7-3, diclofop-methyl]
Polygonum convolvulus Control in % (1000 g of ai/ha): 15%

CCOC(=O)[C@@H](C)Oc1ccc(Oc2nc3ccc(Cl)cc3o2)cc1 [Compound B7-5, fenoxaprop-P-ethyl]
Polygonum convolvulus Control in % (45 g of ai/ha): 35%

Cc1cc(Cl)ccc1O[C@H](C)C(=O)O [Compound B4-5, mecoprop-P]
Polygonum convolvulus Control in % (200 g of ai/ha): 50%

sodium salt of 2-iodo-N-[(4-methoxy-6-methyl-1,3,5-triazin-2-yl)carbamoyl]benzenesulfonamide [Compound A-2]
Polygonum convolvulus Control in % (2.5 g of ai/ha): 10% and 20%

Source: patent US20100311586A1, “HERBICIDAL COMBINATION” (Bayer CorpScience AG, priority 2007, published 2010)
